The source of these data is article PMC6492070 (Frontiers in Pharmacology, 2019).

Where “and” joins values, the source holds several entries; their conditions need not be identical. Equal values may be shown once. Read-outs that look alike come from different tables or passages of the source. Bounds are passed on as bounds.

Data set [1] concerns CYP2A19.
Data set [2] has as its system CYP2D.
Data set [3] concerns CYP2C. The data set is described as follows: in vitro. To be noted: both, hybrid sow × Piétrain boar, pig.
For data set [4], the system named is CYP3A. The data set is described as follows: in vitro. To be noted: both, pig.
Data set [5] concerns CYP2D. Put plainly: in vitro. To be noted: both, hybrid sow × Piétrain boar, pig.
Data set [6] relates to CYP3A.
The subject of data set [7] is CYP2C.
For data set [8] the following is noted: pig, in vivo; cited from earlier work.
The test system of data set [9] is CYP2A.
Data set [10] has as its system CYP2C. This is another data set of the same source.
For data set [11], the system named is IPEC-J2 cells. To be noted: cited from earlier work.
The subject of data set [12] is CYP2E.
Data set [13] has as its system CYP1A.
The subject of data set [14] is CYP2D. The source holds these as a separate data set.
The test system of data set [15] is CYP3A. The source holds these as a separate data set.
The subject of data set [16] is CYP2A19. The data set is described as follows: in vitro. To be noted: both, hybrid sow × Piétrain boar, pig.
For data set [17] the following is noted: both, hybrid sow × Piétrain boars, pig, in vivo.
The nature of data set [18]: in vivo. To be noted: both, hybrid sow × Piétrain boars, pig; for k el: Ke.
The mark [19] stands for this setting: both, hybrid sow × Piétrain boar, pig.

With `CCCC[C@@H](C)[C@@H](OC(=O)C[C@@H](CC(=O)O)C(=O)O)[C@H](C[C@@H](C)C[C@H](O)CCCC[C@@H](O)C[C@H](O)[C@H](C)N)OC(=O)C[C@@H](CC(=O)O)C(=O)O` [FB1, fumonisin B1], in [1], the Inhibition type entry was “Full mixed”, the Ki turned out to be 2.3 µM, the Residual activity is 22.8 (3.50) % and the α is 14.0 (4.30). In addition, in data set [1] (microsomes), the “Inhibition (efficacy)” value turned out to be 17%.

As to `C[C@H]1CCCC(=O)CCC/C=C/c2cc(O)cc(O)c2C(=O)O1` [ZEA, zearalenone], the “DEX formation rate as % of [mycotoxine]=0” value in data set [2] is 37.1724. Further, the values for the Inhibition type result in [2], in [6] and in data set [7] were “Full non-competitive”, “Partial mixed” and “Partial competitive”, respectively. In addition, the inhibition constant (Ki) in [3] is 0.54 µM; in data set [4] (hybrid sow × Piétrain boars, microsomes), 1.1 µM; in data set [5] it was 55.4 µM. In addition, the activity in data set [3] (Residual activity) is under 30%; in data set [4] (hybrid sow × Piétrain boars, microsomes, Residual activity), under 30%; in [5] it was 32%. Also, the α in data set [6] was 3.8 (1.43); in data set [7], 9.5 (1.05). In addition, the β in [6] is 0.26 (0.064). For the same compound, the “mean OH-MDZ formation rate as % of [mycotoxine]=0” value in data set [6] (both, hybrid sow × Piétrain boar cross, pig) came to 26.7981. Further, the Residual activity in [6] (both, hybrid sow × Piétrain boars, pig, microsomes) is 27.0 (3.16) %; in data set [7] (setting [19]) it was 18.7 (0.35) %.

For `CC(=O)OC[C@]12C[C@H](OC(=O)CC(C)C)C(C)=C[C@H]1O[C@@H]1[C@H](O)[C@@H](OC(C)=O)[C@@]2(C)[C@]12CO2` [T-2, T-2 toxin], in [8], the Mean elimination half-life was 0.23 h; the “Parent toxin in plasma and liver” value is “no parent toxin could be detected”. Moreover, in data set [9], the “Formed metabolite OH-CM” value is 6.5 ng/mL and 7.1 ng/mL and 6.9 ng/mL; the OH-CM formation rate was 80.1776 pmol/min/mg protein and 87.5786 pmol/min/mg protein and 85.1116 pmol/min/mg protein; the “OH-CM formation rate, PRE” value was 65.3756 pmol/min/mg protein and 55.5076 pmol/min/mg protein and 64.1421 pmol/min/mg protein; the “OH-CM, pre-incubation (ruwe data)” value is 5.3 and 4.5 and 5.2. In addition, in data set [9], the “Residual CYP enzyme activity, CM (CYP2A)” value is 72.5% and 99.1%. Besides, in [10], the “Formed metabolite OH-TB” value was 8.9 ng/mL and 12.9 ng/mL and 13.4 ng/mL; the OH-TB formation rate is 12.4325 pmol/min/mg protein and 18.0201 pmol/min/mg protein and 18.7185 pmol/min/mg protein; the “OH-TB formation rate, PRE” value was 12.0134 pmol/min/mg protein and 12.2928 pmol/min/mg protein; the “OH-TB, pre-incubation (ruwe data)” value is 8.6 and 8.8. Moreover, in data set [10], the “Residual CYP enzyme activity, TB (CYP2C)” value is 46.3% and 62.3%. The “Concentration significantly affecting epithelial integrity” value in data set [11] is 10 ng/mL and 21.43 nM. Further, in [12], the “Formed metabolite OH-CZ” value is 25.3 ng/mL and 26.9 ng/mL; the OH-CZ formation rate was 272.688 pmol/min/mg protein and 289.933 pmol/min/mg protein; the “OH-CZ formation rate, PRE” value was 237.12 pmol/min/mg protein and 232.809 pmol/min/mg protein and 217.719 pmol/min/mg protein; the “OH-CZ, pre-incubation (ruwe data)” value was 22 and 21.6 and 20.2. Also, the “Residual CYP enzyme activity, CZ (CYP2E)” value in data set [12] is 65.4% and 79.5%. In addition, in data set [13], the “Formed metabolite PAR” value was 47.3 ng/mL and 46.6 ng/mL and 46.9 ng/mL; the PAR formation rate was 625.827 pmol/min/mg protein and 616.565 pmol/min/mg protein and 620.535 pmol/min/mg protein; the “PAR formation rate, PRE” value was 523.948 pmol/min/mg protein and 490.871 pmol/min/mg protein and 492.194 pmol/min/mg protein; the “PAR, pre-incubation (ruwe data)” value is 39.6 and 37.1 and 37.2. For the same compound, the “Residual CYP enzyme activity, PH (CYP1A)” value in [13] was 78.2% and 96.7%. Also, in data set [6], the Inhibition type entry is “Full non-competitive” and affinity was put at a Ki of 27 µM. In data set [14], the DEX formation rate is 838.482 pmol/min/mg protein and 812.838 pmol/min/mg protein and 850.138 pmol/min/mg protein; the “DEX formation rate, PRE” value is 660.528 pmol/min/mg protein and 864.903 pmol/min/mg protein and 852.469 pmol/min/mg protein; the “DEX, pre-incubation (ruwe data)” value is 85 and 111.3 and 109.7; the “Formed metabolite DEX” value is 107.9 ng/mL and 104.6 ng/mL and 109.4 ng/mL. Also, in data set [14], the “Residual CYP enzyme activity, DXM (CYP2D)” value is 94.2% and 99.1%. Besides, in data set [15], the “Formed metabolite OH-MDZ” value is 163 ng/mL and 160.8 ng/mL and 268.8 ng/mL; the OH-MDZ formation rate was 953.858 pmol/min/mg protein and 940.984 pmol/min/mg protein and 1572.99 pmol/min/mg protein; the “OH-MDZ formation rate, PRE” value was 348.773 pmol/min/mg protein and 383.884 pmol/min/mg protein and 308.395 pmol/min/mg protein; the “OH-MDZ, pre-incubation (ruwe data)” value is 59.6 and 65.6 and 52.7. In addition, in data set [7], the Inhibition type result is reported as “Full competitive”, the inhibition constant Ki came to 14.8 µM and the Residual activity is on record as 24.0 (1.38) %.

Take `COc1ccc2c(c1)[C@]13CCCC[C@@H]1[C@H](C2)N(C)CC3` [DXM, Dextromethorphan, reference compound]: in data set [2], the Vmax is given as 1971 (39.7) pmol/mg protein/min. In addition, in [5], the Km was 2 µM.

Regarding `O=c1ccc2ccccc2o1` [CM, coumarin, reference compound], the Vmax in data set [1] is 359 (4.1) pmol/mg protein/min. In addition, in data set [16], the Michaelis-Menten constant (Km) was determined as 0.91 µM.

Consider `CCCCNC(=O)NS(=O)(=O)c1ccc(C)cc1` [TB, tolbutamide, reference compound], for which the results for the Km in data set [3] (Km) and in data set [7] (setting [19]) were 1070 µM and 804 µM, respectively. Further, the Vmax in data set [7] was 160 (16.0) pmol/mg protein/min and 132 (17.9) pmol/mg protein/min.

Consider `Cc1ncc2n1-c1ccc(Cl)cc1C(c1ccccc1F)=NC2` [midazolam], for which the Cl in [17] (iv, 0.036 mg/kg) is on record as 45.5 (22.75) L/h. Besides, the “AUC (0-inf) in the ZEA group, times higher on average” value in data set [17] (po) was “about 2.5 times”. The “Average Ka of the T-2 group, times higher compared to the control group” value in data set [17] (po) is on record as “about 2.5 times”. Also, the total exposure AUC(0-inf) was determined as 0.0115 µg·h/mL in data set [18] (iv, 0.036 mg/kg) and 0.018 µg·h/mL in data set [18] (iv). In [18] (iv, 0.036 mg/kg, Cl), this compound had a clearance of 767 mL/min. Besides, the k el in data set [18] (iv, 0.036 mg/kg) is 0.000231 s⁻¹; in data set [18] (po, 0.15 mg/kg), 0.000108 s⁻¹. Also, the MRT amounted to 0.71 h in data set [18] (iv, 0.036 mg/kg) and 3.58 h in [18] (po, 0.15 mg/kg). In [18] (iv, 0.036 mg/kg, Vd), the distribution volume (Vd) stood at 60.8 L. In addition, the Tmax was 0.714 ± 0.559 h in data set [18] (po, 0.15 mg/kg, Mean Tmax after removing the observation); 1.15 h in [18] (po, 0.15 mg/kg, Tmax); 4 h in data set [18] (po, 0.15 mg/kg, Tmax of one pig); 0.67 to 2 h in data set [18] (po, 0.15 mg/kg, Tmax range); 0.16 to 1.5 h in [18] (po, 0.15 mg/kg, Tmax range of the other pigs). Further, the Michaelis constant (Km) in data set [4] (hybrid sow × Piétrain boar, Km) stood at 12.3 µM; in data set [6] (setting [19]), 11.3 µM. For the same compound, the Vmax in data set [6] is 2155 (73.8) pmol/mg protein/min and 1899 (88.2) pmol/mg protein/min.

What is called Ki is the dissociation constant of the complex between target and ligand, obtained from inhibition or displacement. The low end stands for tighter binding, the high end for weaker binding. The Km is the substrate concentration at which the rate is half of its maximum. As a reminder, the AUC(0-inf) is the area under the concentration-time curve extrapolated to infinity. A high value points to high exposure. Broadly, the clearance is the rate of elimination divided by the concentration. A lower clearance goes with inefficient removal. Broadly, the MRT is a mean duration of stay, worked out from the concentration-time curve. Usually Vd stands for the apparent volume that relates the amount in the body to the concentration in plasma or blood. Read a low Vd as confinement near the circulation. By Tmax is commonly meant the time at which the peak concentration occurs.
